We go through 22 compounds from patent publication US10214546B2, “Btk inhibitors” (MERCK SHARP & DOHME CORP., priority 2014, dated 2019).

In experiment [1] the target is BTK enzyme (recombinant full-length BTK, hBTK) (Homo sapiens (Human), UniProt Q06187). The experiment in a line: BTK enzymatic activity LANCE TR-FRET assay. The following applies: 50 pM hBTK, 25 μM ATP, 2 μM biotin-A5-peptide; compound range 1 μM to 0.017 nM; read-out: BTK binding IC50. The format is biochemical.
Experiment [2] deals with adenosine uptake into HeLa cells. Put plainly: [3H]Adenosine uptake assay in HeLa cells. The class given is cell-based. An outline of the steps: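 HeLa cells in HBSS + 5% FBS were preincubated 30 min at ambient temperature with compound (ten-point 1:3 series, 10 µM–[…] final), then given [3H]adenosine (added as a 500 nM solution) for 60 min. Cell-associated label was read by scintillating-plate proximity counting; IC50 from 4-parameter fit of cps versus log concentration.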

Where [3] appears, read: Homo sapiens, HeLa, [3H]adenosine accumulation in HeLa cells; compound range 10 μM to 0.032 nM; read-out: ADU inhibition IC50.
The mark [4] stands for this setting: [3H]adenosine accumulation in HeLa cells; compound range 10 μM to 0.032 nM; read-out: ADU inhibition IC50.

A word on the IC50: it is the concentration at which inhibition is half-maximal.

Read-outs that look alike come from different tables or passages of the source.

Chain of BTK enzyme (recombinant full-length BTK, hBTK) (Q06187 whole entry): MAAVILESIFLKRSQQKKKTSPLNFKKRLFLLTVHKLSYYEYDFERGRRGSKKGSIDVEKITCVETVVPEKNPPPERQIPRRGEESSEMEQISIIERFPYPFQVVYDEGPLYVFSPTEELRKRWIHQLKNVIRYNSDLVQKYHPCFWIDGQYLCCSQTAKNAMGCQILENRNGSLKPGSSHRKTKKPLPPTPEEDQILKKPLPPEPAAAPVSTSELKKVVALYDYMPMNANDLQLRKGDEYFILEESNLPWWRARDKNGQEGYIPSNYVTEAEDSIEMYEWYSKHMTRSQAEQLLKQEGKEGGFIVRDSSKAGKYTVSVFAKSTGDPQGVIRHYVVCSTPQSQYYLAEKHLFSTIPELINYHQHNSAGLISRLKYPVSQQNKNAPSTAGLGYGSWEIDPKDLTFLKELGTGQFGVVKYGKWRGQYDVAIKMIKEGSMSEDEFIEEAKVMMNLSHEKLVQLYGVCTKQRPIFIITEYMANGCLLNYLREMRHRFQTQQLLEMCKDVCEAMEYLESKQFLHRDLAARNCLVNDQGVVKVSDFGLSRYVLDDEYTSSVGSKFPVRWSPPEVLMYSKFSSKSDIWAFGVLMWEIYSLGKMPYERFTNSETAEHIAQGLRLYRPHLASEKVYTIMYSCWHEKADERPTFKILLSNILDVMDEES

For the compound `C[C@@](O)(c1ccccc1)c1ccc(-c2nc([C@@H]3CC[C@H]4CCC(=O)N4C3)n3ccnc(N)c23)cc1` [Example 2, (6R,8aS)-6-(8-amino-1-(4-((R)-1-hydroxy-1-phenylethyl)phenyl)imidazo[1,5-a]pyrazin-3-yl)hexahydroindolizin-3(2H)-one], the 50% inhibitory concentration (IC50) in experiment [1] was determined as 1.6 nM; in experiment [2] (setting [3]), 6350 nM.
The matching figures for `CC(O)(c1ccc(-c2nc([C@@H]3CC[C@H]4CCC(=O)N4C3)n3ccnc(N)c23)cc1)c1ccc(C(F)(F)F)cc1` (stereo partly drawn) [Example 15, (6R,8aS)-6-[8-amino-1-(4-{1-hydroxy-1-[4-(trifluoromethyl)phenyl]ethyl}phenyl)imidazo[1,5-a]pyrazin-3-yl]hexahydroindolizin-3(2H)-one]: 388 nM and 1780 nM.
`CC(O)(c1ccc(-c2nc([C@@H]3CC[C@H]4CCC(=O)N4C3)n3ccnc(N)c23)cc1)c1cccc(C2CC2(F)F)c1` (stereo partly drawn) [Example 160, (6R,8aS)-6-[8-amino-1-(4-{1-[3-(2,2-difluorocyclopropyl)phenyl]-1-hydroxyethyl}phenyl)imidazo[1,5-a]pyrazin-3-yl]hexahydroindolizin-3(2H)-one]: the IC50 in experiment [1] came out at 0.07 nM; in experiment [2] (setting [4]), 1840 nM.
Turning to `COc1cc(-c2nc([C@@H]3CC[C@H]4CCC(=O)N4C3)n3ccnc(N)c23)ccc1[C@@](C)(O)c1cccc(C2CC2)c1` [Example 99, (6R,8aS)-6-(8-amino-1-{4-[(1S)-1-(3-cyclopropylphenyl)-1-hydroxyethyl]-3-methoxyphenyl}imidazo [1,5-a]pyrazin-3-yl)hexahydroindolizin-3(2H)-one], the IC50 is 10.1 nM in experiment [1] and 1190 nM in experiment [2] (setting [3]).
In the case of `CC(O)(c1ccc(-c2nc([C@@H]3CC[C@H]4CCC(=O)N4C3)n3ccnc(N)c23)cc1)c1cc(C(F)(F)F)ccc1F` (stereo partly drawn) [Example 145, (6R,8aS)-6-[8-amino-1-(4-{1-[2-fluoro-5-(trifluoromethyl)phenyl]-1-hydroxyethyl}phenyl)imidazo[1,5-a]pyrazin-3-yl]hexahydroindolizin-3(2H)-one], the results for the IC50 in experiment [1] and in experiment [2] (setting [3]) were 1000 nM and 1220 nM, respectively.
With `C[C@@](O)(c1ccc(-c2nc([C@@H]3CC[C@H]4CCC(=O)N4C3)n3c(F)cnc(N)c23)cc1)c1cccc(C(F)(F)F)c1` [Example 158, (6R,8aS)-6-[8-amino-5-fluoro-1-(4-{(1R)-1-hydroxy-1-[3-(trifluoromethyl)phenyl]ethyl}phenyl)imidazo [1,5-a]pyrazin-3-yl]hexahydroindolizin-3(2H)-one], the IC50 in experiment [1] was found to be 4.7 nM; in experiment [2] (setting [3]), 6300 nM.
As for `Cc1cc(-c2nc([C@@H]3CC[C@H]4CCC(=O)N4C3)n3ccnc(N)c23)ccc1C(C)(O)c1cccc(C(F)(F)F)c1` (stereo partly drawn) [Example 42, (6R,8aS)-6-[8-amino-1-(4-{1-hydroxy-1-[3-(trifluoromethyl)phenyl]ethyl}-3-methylphenyl)imidazo [1,5-a]pyrazin-3-yl]hexahydroindolizin-3(2H)-one], the IC50 in experiment [1] is 1000 nM; in experiment [2] (setting [4]) it was 3230 nM.
Regarding `COc1cc(C(O)(c2cccc(C(F)(F)F)c2)C(F)(F)F)ccc1-c1nc([C@@H]2CC[C@H]3CCC(=O)N3C2)n2ccnc(N)c12` (single isomer, unassigned) [Example 11], the results for the IC50 in experiment [1] and in experiment [2] (setting [4]) were 1.8 nM and 5340 nM, respectively.
With `CC(F)(F)c1cccc([C@](C)(O)c2ccc(-c3nc([C@@H]4CC[C@H]5CCC(=O)N5C4)n4ccnc(N)c34)cc2)c1` [Example 132, (6R,8aS)-6-[8-amino-1-(4-{(1R)-1-[3-(1,1-difluoroethyl)phenyl]-1-hydroxyethyl}phenyl)imidazo[1,5-a]pyrazin-3-yl]hexahydroindolizin-3(2H)-one], the IC50 in experiment [1] came out at 0.3 nM; in experiment [2] (setting [3]), 2950 nM.
On the same counts, the results for `Nc1nccn2c([C@@H]3CC[C@H]4CCC(=O)N4C3)nc(-c3ccc([C@](O)(c4ccccc4)C(F)(F)F)cc3)c12` [Example 25, (6R,8aS)-6-(8-amino-1-{4-[(1R)-2,2,2-trifluoro-1-hydroxy-1-phenylethyl]phenyl}imidazo[1,5-a]pyrazin-3-yl)hexahydroindolizin-3(2H)-one] are 1.8 nM and 3830 nM.
As for `NC(=O)C(O)(c1ccc(-c2nc([C@@H]3CC[C@H]4CCC(=O)N4C3)n3ccnc(N)c23)cc1)c1cccc(C(F)(F)F)c1` (stereo partly drawn) [Example 97, 2-(4-{8-amino-3-[(6R,8aS)-3-oxooctahydroindolizin-6-yl]imidazo[1,5-a]pyrazin-1-yl}phenyl)-2-hydroxy-2-[3-(trifluoromethyl)phenyl] acetamide], the IC50 was determined as 894 nM in experiment [1] and 10000 nM in experiment [2] (read-out: ADU inhibition IC50; [3H]adenosine accumulation in HeLa cells; compound range 10 μM to 0.032 nM).
On to `C[C@@](O)(c1ccc(-c2nc([C@H]3CC[C@@H]4COCC(=O)N4C3)n3ccnc(N)c23)cc1)c1cccc(C(F)(F)F)c1` [Example 156, (7S,9aR)-7-(8-amino-1-(4-{(1R)-1-hydroxy-1-[3-(trifluoromethyl)pheny]ethyl}phenyl)imidazo [1,5-a]pyrazin-3-yl]hexahydropyrido[2,1-c][1,4]oxazin-4(3H)-one], for which the figures for the IC50 in experiment [1] and in experiment [2] (setting [3]) were 72.3 nM and 1470 nM, respectively.
Turning to `C[C@](O)(c1ccc(-c2nc([C@@H]3CC[C@H]4CCC(=O)N4C3)n3ccnc(N)c23)cc1)c1cncc(C(F)(F)F)c1` [Example 135, (6R,8aS)-6-[8-amino-1-(4-{(1S)-1-hydroxy-1-[5-(trifluoromethyl)pyridin-3-yl]ethyl}phenyl)imidazo [1,5-a]pyrazin-3-yl]hexahydroindolizin-3(2H)-one], the concentration for half-maximal inhibition (IC50) in experiment [1] came to 1000 nM; in experiment [2] (setting [3]), 973 nM.
Regarding `Cc1ccccc1[C@@](C)(O)c1ccc(-c2nc([C@@H]3CC[C@H]4CCC(=O)N4C3)n3ccnc(N)c23)cc1` [Example 47, (6R,8aS)-6-(8-amino-1-{4-[(1S)-1-hydroxy-1-(2-methylphenyl)ethyl]phenyl}imidazo[1,5-a]pyrazin-3-yl)hexahydroindolizin-3(2H)-one], the concentration for half-maximal inhibition (IC50) in experiment [1] was found to be 183 nM; in experiment [2] (setting [3]), 2040 nM.
In the case of `COc1cc([C@@](C)(O)c2cccc(C(F)(F)F)c2)ccc1-c1nc([C@@H]2CC[C@H]3CCC(=O)N3C2)n2ccnc(N)c12` [Example 141, (6R,8aS)-6-[8-amino-1-(4-{(1S)-1-hydroxy-1-[3-(trifluoromethyl)phenyl]ethyl}-2-methoxyphenyl)imidazo [1,5-a]pyrazin-3-yl]hexahydroindolizin-3(2H)-one], the figures for the IC50 in experiment [1] and in experiment [2] (setting [3]) were 93.8 nM and 1980 nM, respectively.
Consider `COc1cc(C(O)(c2cccc(C(F)F)c2)C(F)(F)F)ccc1-c1nc([C@@H]2CC[C@H]3CCC(=O)N3C2)n2ccnc(N)c12` (stereo partly drawn) [Example 210, (6R,8aS)-6-[8-amino-1-(4-{1-[3-(difluoromethyl)phenyl]-2,2,2-trifluoro-1-hydroxyethyl}-2-methoxyphenyl)imidazo [1,5-a]pyrazin-3-yl]hexahydroindolizin-3(2H)-one], for which the figures for the IC50 in experiment [1] and in experiment [2] (setting [4]) were 67 nM and 2700 nM, respectively.
Regarding `CC(C)N1CC(=O)N2C[C@@H](c3nc(-c4ccc([C@@](C)(O)c5cccc(C(F)(F)F)c5)cc4)c4c(N)nccn34)CC[C@@H]2C1` [Example 120, (7S,9aR)-7-[8-amino-1-(4-{(1R)-1-hydroxy-1-[3-(trifluoromethyl)phenyl]ethyl}phenyl)imidazo [1,5-a]pyrazin-3-yl]-2-(1-methylethyl)octahydro-4H-pyrido[1,2-a]pyrazin-4-one], the half-maximal inhibitory concentration (IC50) in experiment [1] came to 5.1 nM; in experiment [2] (setting [3]), 4670 nM.
The matching figures for `CCc1cccc([C@@](C)(O)c2ccc(-c3nc([C@@H]4CC[C@H]5CCC(=O)N5C4)n4ccnc(N)c34)cc2)c1` [Example 92, (6R,8aS)-6-(8-amino-1-{4-[(1S)-1-(3-ethylphenyl)-1-hydroxyethyl]phenyl}imidazo[1,5-a]pyrazin-3-yl)hexahydroindolizin-3(2H)-one]: 0.48 nM and 619 nM.
`CC(O)(c1ccc(-c2nc([C@@H]3CC[C@H]4CCC(=O)N4C3)n3ccnc(N)c23)cc1)c1cc(C(F)(F)F)ccc1F` (stereo partly drawn) [Example 151, (6R,8aS)-6-[8-amino-1-(4-{1-[2-fluoro-5-(trifluoromethyl)pheny]-1-hydroxyethyl}phenyl)imidazo[1,5-a]pyrazin-3-yl]hexahydroindolizin-3(2H)-one]: the concentration for half-maximal inhibition (IC50) in experiment [1] was 12.1 nM; in experiment [2] (setting [4]), 2040 nM.
The matching figures for `CC(O)(c1ccc(-c2nc([C@@H]3CC[C@H]4CCC(=O)N4C3)n3ccnc(N)c23)cc1)C1CC2CCC1CC2` (stereo partly drawn) [Example 150, (6R,8aS)-6-{8-amino-1-[4-(1-bicyclo[2.2.2]oct-2-yl-1-hydroxyethyl)phenyl]imidazo[1,5-a]pyrazin-3-yl}hexahydroindolizin-3(2H)-one]: 1.6 nM and 2410 nM.
For the compound `CO[C@@](C)(c1ccc(-c2nc([C@@H]3CC[C@H]4CCC(=O)N4C3)n3ccnc(N)c23)cc1)c1cccc(C(F)(F)F)c1` [Example 90, (6R,8aS)-6-[8-amino-1-(4-{(1S)-1-methoxy-1-[3-(trifluoromethyl)phenyl]ethyl}phenyl)imidazo [1,5-a]pyrazin-3-yl]hexahydroindolizin-3(2H)-one], the half-inhibitory concentration (IC50) is 1000 nM in experiment [1] and 969 nM in experiment [2] (setting [3]).
For the compound `C[C@@](O)(c1ccc(-c2nc([C@@H]3CC[C@H]4CCC(=O)N4C3)n3ccnc(N)c23)cc1)c1cncc(C(F)(F)F)c1` [Example 136, (6R,8aS)-6-[8-amino-1-(4-{(1R)-1-hydroxy-1-[5-(trifluoromethyl)pyridin-3-yl]ethyl}phenyl)imidazo [1,5-a]pyrazin-3-yl]hexahydroindolizin-3(2H)-one], the values for the IC50 in experiment [1] and in experiment [2] (setting [3]) were 87.6 nM and 4620 nM, respectively.
